The record followed here is patent publication US20100003246A1, “Novel heterocyclic compounds and uses therof” (priority 2008, published 2010).

T1 sequence (P15056 whole entry V600E): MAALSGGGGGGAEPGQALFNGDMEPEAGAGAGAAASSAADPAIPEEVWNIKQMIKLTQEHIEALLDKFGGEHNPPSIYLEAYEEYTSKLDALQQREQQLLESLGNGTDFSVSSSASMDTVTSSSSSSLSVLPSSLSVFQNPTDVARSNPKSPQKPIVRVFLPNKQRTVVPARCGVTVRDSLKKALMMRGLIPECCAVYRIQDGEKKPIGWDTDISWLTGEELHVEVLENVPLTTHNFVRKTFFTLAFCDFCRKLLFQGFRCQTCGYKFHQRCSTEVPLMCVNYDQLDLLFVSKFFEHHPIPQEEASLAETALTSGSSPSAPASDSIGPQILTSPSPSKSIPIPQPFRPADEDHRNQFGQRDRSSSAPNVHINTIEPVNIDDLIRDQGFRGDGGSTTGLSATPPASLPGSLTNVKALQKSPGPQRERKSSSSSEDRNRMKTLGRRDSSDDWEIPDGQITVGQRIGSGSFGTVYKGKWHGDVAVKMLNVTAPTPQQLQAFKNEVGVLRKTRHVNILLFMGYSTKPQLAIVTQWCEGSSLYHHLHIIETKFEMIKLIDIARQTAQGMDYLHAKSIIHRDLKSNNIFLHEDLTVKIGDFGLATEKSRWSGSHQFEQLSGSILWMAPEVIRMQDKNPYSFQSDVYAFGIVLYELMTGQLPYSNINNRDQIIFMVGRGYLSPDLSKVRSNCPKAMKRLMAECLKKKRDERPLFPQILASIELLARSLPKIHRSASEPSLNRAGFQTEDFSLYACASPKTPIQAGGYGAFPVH

The assay concerns the target T1, b-Raf(V600E) (Homo sapiens, UniProt P15056, V600E).
T1 construct: made in house
Description: Raf/Mek Amplified Luminescence Proximity Homogeneous Assay (Alpha Screen), b-Raf(V600E). It counts as biochemical. To be noted: mutant b-Raf(V600E), read-out: mut-b-RAF (IC50 in uM). The method, boiled down:
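Active b-Raf(V600E) (~4 pM) pre-incubated 60 min at room temperature with compound and kinase-dead biotinylated Mek (~10 nM) in Tris pH 7.5, MgCl2, BSA, DTT; ATP-started reaction ran 3 h, EDTA-stopped. Phospho-MEK detected by anti-p-MEK AlphaScreen luminescence; IC50 by non-linear regression.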
With `COc1cc(-c2nc(C3CCOCC3)[nH]c2-c2ccncc2)cnc1N` [Compound 162, 3-methoxy-5-(5-(pyridin-4-yl)-2-(tetrahydro-2H-pyran-4-yl)-1H-imidazol-4-yl)pyridin-2-amine], the 50% inhibitory concentration (IC50) was found to be 0.0055 µM. Take `COc1cc(-c2nc(C3=CCCC3)[nH]c2-c2ccncc2)cnc1N` [Compound 127, 5-(2-cyclopentenyl-5-(pyridin-4-yl)-1H-imidazol-4-yl)-3-methoxypyridin-2-amine]: the IC50 turned out to be 0.0018 µM. For `CNc1ncc(-c2[nH]c(-c3ccccc3)nc2-c2ccncc2)cc1OC` [Compound 43, 3-methoxy-N-methyl-5-(2-phenyl-4-(pyridin-4-yl)-1H-imidazol-5-yl)pyridin-2-amine] the value was 0.025 µM; for `COc1cc(-c2[nH]c(-c3ccc(F)cc3)nc2-c2ccnc(NC3CCCC3)n2)cnc1N` [Compound 164, 4-(5-(6-amino-5-methoxypyridin-3-yl)-2-(4-fluorophenyl)-1H-imidazol-4-yl)-N-cyclopentylpyrimidin-2-amine], 0.0163 µM; for `COc1cc(-c2[nH]c(-c3ccc(F)cc3)nc2-c2ccncc2Cl)cnc1N` [Compound 94, 5-(4-(3-chloropyridin-4-yl)-2-(4-fluorophenyl)-1H-imidazol-5-yl)-3-methoxypyridin-2-amine], 0.0606 µM.

Regarding `COCC(=O)N[C@@H](C)CNc1nccc(-c2oc(-c3ccc(C(F)(F)F)cc3)nc2-c2cnc(N)c(OC)c2)n1` [Example 14], the IC50 amounted to 0.003 µM.

Consider `COc1cc(-c2[nH]c(-c3ccc4[nH]ncc4c3)nc2-c2ccncc2)cnc1N` [Compound 167, 5-(2-(1H-indazol-5-yl)-4-(pyridin-4-yl)-1H-imidazol-5-yl)-3-methoxypyridin-2-amine], for which the 50% inhibitory concentration (IC50) was determined as 0.0007 µM. As for `COc1cc(-c2[nH]c(-c3ccccc3F)nc2-c2ccncc2)cnc1N` [Compound 137, 5-(2-(2-fluorophenyl)-4-(pyridin-4-yl)-1H-imidazol-5-yl)-3-methoxypyridin-2-amine], the figure is 0.0017 µM; as for `COCCCNc1nccc(-c2nc(-c3ccc(F)cc3)[nH]c2-c2cnc(N)c(OC)c2)n1` [Compound 179, 4-(5-(6-amino-5-methoxypyridin-3-yl)-2-(4-fluorophenyl)-1H-imidazol-4-yl)-N-(3-methoxypropyl)pyrimidin-2-amine], 0.001 µM. As for `COc1cc(-c2nc(C(C)(C)C)[nH]c2-c2ccnc(NC[C@H](C)NC(C)=O)n2)cnc1N` [Compound 218, (S)-N-(1-(4-(4-(6-amino-5-methoxypyridin-3-yl)-2-tert-butyl-1H-imidazol-5-yl)pyrimidin-2-ylamino)propan-2-yl)acetamide], the half-inhibitory concentration (IC50) was 0.0003 µM. For `COc1cc(-c2[nH]c(-c3ccc(F)cc3)nc2-c2ccnc(N[C@H]3CCN(C(C)=O)C3)n2)cnc1N` [Compound 194, (S)-1-(3-(4-(5-(6-amino-5-methoxypyridin-3-yl)-2-(4-fluorophenyl)-1H-imidazol-4-yl)pyrimidin-2-ylamino)pyrrolidin-1-yl)ethanone] the value was 0.008 µM. In the case of `COc1cc(-c2[nH]c(-c3ccccc3C)nc2-c2ccncc2)cnc1N` [Compound 138, 3-methoxy-5-(4-(pyridin-4-yl)-2-o-tolyl-1H-imidazol-5-yl)pyridin-2-amine], the IC50 worked out at 0.0012 µM. As for `COc1cc(-c2nc(-c3ccc(F)cc3)[nH]c2-c2ccnc(NC[C@H](C)NC(=O)[C@@H](C)OC)n2)cnc1N` [Compound 196, (R)-N-((S)-1-(4-(4-(6-amino-5-methoxypyridin-3-yl)-2-(4-fluorophenyl)-1H-imidazol-5-yl)pyrimidin-2-ylamino)propan-2-yl)-2-methoxypropanamide], the figure is 0.0002 µM; as for `COc1cc(-c2nc(C(C)(C)C)[nH]c2-c2ccnc(NCc3ccc(C(F)(F)F)cc3)n2)cnc1N` [Compound 215, 4-(4-(6-amino-5-methoxypyridin-3-yl)-2-tert-butyl-1H-imidazol-5-yl)-N-(4-(trifluoromethyl)benzyl)-pyrimidin-2-amine], 0.0005 µM.

Take `COc1cc(-c2nc(C(C)(C)C)[nH]c2-c2ccnc(NCC(C)C)n2)cnc1N` [Compound 209, 4-(4-(6-amino-5-methoxypyridin-3-yl)-2-tert-butyl-1H-imidazol-5-yl)-N-isobutylpyrimidin-2-amine]: the IC50 stood at 0.0001 µM. As for `CCc1cc(-c2[nH]c(-c3ccc(F)cc3)nc2-c2ccncc2)cnc1N` [Compound 105, 3-ethyl-5-(2-(4-fluorophenyl)-4-(pyridin-4-yl)-1H-imidazol-5-yl)pyridin-2-amine], the half-inhibitory concentration (IC50) is 0.215 µM. With `COCC(=O)NCCNc1nccc(-c2nc(-c3ccc(F)cc3)[nH]c2-c2cc(C)c3ncnn3c2)n1` [Compound 202, N-(2-(4-(2-(4-fluorophenyl)-5-(8-methyl-[1,2,4]triazolo[1,5-a]pyridin-6-yl)-1H-imidazol-4-yl)pyrimidin-2-ylamino)ethyl)-2-methoxyacetamide], the half-maximal inhibitory concentration (IC50) stood at 0.025 µM. Take `CCS(=O)(=O)N1CCN(c2nc(-c3ccncc3)c(-c3cnc(N)c(OC)c3)[nH]2)CC1` [Compound 264, 5-(2-(4-(ethylsulfonyl)piperazin-1-yl)-4-(pyridin-4-yl)-1H-imidazol-5-yl)-3-methoxypyridin-2-amine]: the half-inhibitory concentration (IC50) worked out at 0.04 µM.

Consider `COc1cc(-c2nc(C(C)(C)C)[nH]c2-c2ccnc(Nc3ccc(Cl)c(C(F)(F)F)c3)n2)cnc1N` [Compound 222, 4-(4-(6-amino-5-methoxypyridin-3-yl)-2-tert-butyl-1H-imidazol-5-yl)-N-(4-chloro-3-(trifluoromethyl)phenyl) pyrimidin-2-amine], for which the half-inhibitory concentration (IC50) was 0.0002 µM. `COc1cc(Nc2nccc(-c3[nH]c(C)nc3-c3cnc(N)c(OC)c3)n2)ccn1` [Compound 244, 4-(4-(6-amino-5-methoxypyridin-3-yl)-2-methyl-1H-imidazol-5-yl)-N-(2-methoxypyridin-4-yl)pyrimidin-2-amine]: the IC50 was 0.003 µM. For `COc1cc(-c2[nH]c(-c3ccc(F)c(C=O)c3)nc2-c2ccncc2)cnc1N` [Compound 148, 5-(5-(6-amino-5-methoxypyridin-3-yl)-4-(pyridin-4-yl)-1H-imidazol-2-yl)-2-fluorobenzaldehyde], the concentration for half-maximal inhibition (IC50) came to 0.0015 µM.

With `COc1cc(-c2[nH]c(-c3ccc(F)c(C)c3)nc2-c2ccncc2)cnc1N` [Compound 149, 5-(2-(4-fluoro-3-methylphenyl)-4-(pyridin-4-yl)-1H-imidazol-5-yl)-3-methoxypyridin-2-amine], the IC50 was 0.0006 µM.

With `COc1nc(-c2nc(C(C)(C)C)[nH]c2-c2ccnc(NC[C@H](C)NC(=O)OC(C)C)n2)cnc1N` [Compound 237, (S)-isopropyl 1-(4-(4-(5-amino-6-methoxypyrazin-2-yl)-2-tert-butyl-1H-imidazol-5-yl)pyrimidin-2-ylamino)propan-2-ylcarbamate], the half-maximal inhibitory concentration (IC50) was 0.0001 µM. As to `COc1cc(-c2[nH]c(-c3ccc(F)cc3)nc2C2CCOCC2)cnc1N` [Example 10, 5-(2-(4-fluorophenyl)-5-(tetrahydro-2H-pyran-4-yl)-1H-imidazol-4-yl)-3-methoxypyridin-2-amine], the IC50 amounted to 0.405 µM. `CNc1nccc(-c2[nH]c(-c3ccccc3)nc2-c2cnc(N)c(OC)c2)n1` [Compound 56, 4-(4-(6-amino-5-methoxypyridin-3-yl)-2-phenyl-1H-imidazol-5-yl)-N-methylpyrimidin-2-amine]: the concentration for half-maximal inhibition (IC50) stood at 0.0029 µM.

As to `COc1cc(-c2[nH]c(-c3ccc(F)cc3)nc2-c2ccnc(N[C@@H]3CCN(C(C)=O)C3)n2)cnc1N` [Compound 193, (R)-1-(3-(4-(5-(6-amino-5-methoxypyridin-3-yl)-2-(4-fluorophenyl)-1H-imidazol-4-yl)pyrimidin-2-ylamino)pyrrolidin-1-yl)ethanone], the IC50 turned out to be 0.038 µM. As for `COc1cc(-c2[nH]c(-c3ccc(F)cc3)nc2-c2cnc(N)c(OC)c2)ccn1` [Compound 112, 5-(2-(4-fluorophenyl)-5-(2-methoxypyridin-4-yl)-1H-imidazol-4-yl)-3-methoxypyridin-2-amine], the IC50 turned out to be 0.737 µM. Consider `COCC(=O)N[C@@H](C)CNc1nccc(-c2[nH]c(C(C)(C)C)nc2-c2cnc(N)c(OC)c2)n1` [Compound 205, (S)-N-(1-(4-(4-(6-amino-5-methoxypyridin-3-yl)-2-tert-butyl-1H-imidazol-5-yl)pyrimidin-2-ylamino)propan-2-yl)-2-methoxyacetamide], for which the IC50 worked out at 0.0004 µM.

As to `COc1cc(-c2nc(-c3ccc(F)cc3)oc2-c2ccncc2)cnc1N` [Example 13, 5-(2-(4-fluorophenyl)-5-(pyridin-4-yl)oxazol-4-yl)-3-methoxypyridin-2-amine], the IC50 was determined as 0.0005 µM. Consider `COc1cc(-c2[nH]c(-c3ccc(F)cc3)nc2-c2ccnc(NC3CCCCC3)n2)cnc1N` [Compound 165, 4-(5-(6-amino-5-methoxypyridin-3-yl)-2-(4-fluorophenyl)-1H-imidazol-4-yl)-N-cyclohexylpyrimidin-2-amine], for which the half-inhibitory concentration (IC50) was determined as 0.0483 µM. Take `COc1cc(-c2nc(-c3ccc(F)cc3)[nH]c2-c2ccnc(Nc3cccc(F)c3)n2)cnc1N` [Compound 172, 4-(4-(6-amino-5-methoxypyridin-3-yl)-2-(4-fluorophenyl)-1H-imidazol-5-yl)-N-(3-fluorophenyl)pyrimidin-2-amine]: the half-maximal inhibitory concentration (IC50) stood at 0.0014 µM. Regarding `COc1cc(-c2nc(-c3ccc(C(F)(F)F)cc3)oc2-c2ccnc(NCC(C)C)c2)cnc1N` [Compound 232, 4-(4-(6-amino-5-methoxypyridin-3-yl)-2-(4-(trifluoromethyl)phenyl)-oxazol-5-yl)-N-isobutylpyridin-2-amine], the IC50 was 0.0084 µM.

On to `COc1cc(-c2[nH]c(-c3ccc(F)cc3)nc2-c2ccncc2F)cnc1N` [Compound 93, 5-(2-(4-fluorophenyl)-4-(3-fluoropyridin-4-yl)-1H-imidazol-5-yl)-3-methoxypyridin-2-amine], for which the IC50 was 0.0038 µM.
